From patent US11980633B2, “Method for treating cancer using a combination of DNA-damaging agents and DNA-PK inhibitors” (Vertex Pharmaceuticals Incorporated, priority 2016, dated 2024)

Tested on: primary human endometrial tumors (dissociated cells)
Assay: Tumor Chemosensitivity Assay (TCA): Compound B-2 with doxorubicin, primary endometrial tumors, viability after 6 days, Bliss
Assay type: cell-based
Protocol: Specifically, one study described the combination of Compound B-2 and doxorubicin hydrochloride. In this study, a panel of primary human ovarian and endometrial tumors was dissociated and treated with Compound B-2 to determine the effectiveness of this selective DNA-PK inhibitor to enhance the activity of doxorubicin.
In both studies, cell viability was assessed after 6 days in culture. Statistical analysis of the combination matrix was performed to assess whether synergy, additivity, or antagonism of the combination treatments were observed.
Materials: Primary patient samples (See Tables 16 and 17, below) were excised from mice when they reached 500 mg to 1000 mg in size and processed immediately, or after overnight shipment. Tumors were serially passaged by subcutaneous implantation of 50 mg to 150 mg fragments into the flanks of immunocompromised (nude) mice. Tumors were used within the first 5 or 7 passages.
Tumor Chemosensitivity Assay (TCA): Primary tumor samples were grown and serially passaged in immunocompromised mice. Tumors were mechanically dissociated into small fragments (1 mm to 2 mm) with scalpels in phosphate buffered saline (PBS or RPMI) and centrifuged at 200×g for 5 minutes at room temperature in 50 mL centrifuge tubes. […] Cells were diluted in Trypan blue, and viable cells that excluded the dye were counted. […]

[2H]c1nc(C)nc([2H])c1-c1cc(NC[C@@H](C)c2cccc3c(C(=O)NC)ccnc23)ncn1 [Compound B-2]
Average Bliss score (tumor ENX001 (Endometrial)): 6
Average Bliss score (tumor ENX005 (Endometrial)): 21
